# Reference: patent US12071434B2, “Heterocyclic compound” (Takeda Pharmaceutical Company Limited, priority 2018, dated 2024)
# Target: T1, human orexin type 2 receptor (Homo sapiens, UniProt O43614)
# T1 construct: expressed in transfected cells
# T1 sequence (O43614 1-444): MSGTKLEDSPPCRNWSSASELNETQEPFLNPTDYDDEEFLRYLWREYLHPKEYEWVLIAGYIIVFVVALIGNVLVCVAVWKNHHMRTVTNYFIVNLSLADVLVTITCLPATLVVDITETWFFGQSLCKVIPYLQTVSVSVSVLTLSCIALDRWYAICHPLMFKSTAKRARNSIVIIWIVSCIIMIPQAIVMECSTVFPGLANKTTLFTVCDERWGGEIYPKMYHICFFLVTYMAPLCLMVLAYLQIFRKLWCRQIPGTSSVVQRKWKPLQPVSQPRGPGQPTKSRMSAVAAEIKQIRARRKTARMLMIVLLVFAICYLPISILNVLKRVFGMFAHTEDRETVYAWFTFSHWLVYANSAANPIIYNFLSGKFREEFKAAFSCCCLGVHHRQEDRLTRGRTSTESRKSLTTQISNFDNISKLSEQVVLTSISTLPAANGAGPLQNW
# Assay: Measurement of orexin type 2 receptor agonist activity (calcium fluorescence, Fluo-4 AM, FDSS) in CHO cells forcibly expressing human OX2 receptor
# Format: cell-based
# Details: test compound 3 μM, DMSO = 0%, orexin A (human) 10 nM = 100%
# Description: To obtain a cell clone stably expressing human orexin type 2 receptor, human orexin type 2 receptor cDNA was inserted into pcDNA3.1(+) plasmid vector (Invitrogen), and a plasmid DNA for expression of human orexin type 2 receptor (pcDNA3.1(+)/hOX2R) was cloned. The plasmid DNA was introduced into CHO-dhfr cell by an electroporation method, and human orexin type 2 receptor expressing clone cells were obtained by limiting dilution method by using G418 drug resistance as a selection marker.
# CHO cells forcibly expressing human OX2 receptor were seeded in each well of 384 well black transparent bottom plate (BD Falcon) at 7,500 cells/well, and cultured for one day in a 5% CO2 incubator at 37° C. After removal of the medium in the cell plate, assay buffer A containing a calcium indicator (HBSS (Thermo Fisher Scientific), 20 mM HEPES (Thermo Fisher Scientific), 0.1% BSA (Sigma-Aldrich), 2.5 μg/mL Fluo-4 AM (DOJINDO Chemical), 0.08% Pluronic F127 (DOJINDO Chemical), 1.25 mM probenecid (DOJINDO Chemical)) was added at 30 μL/well. The plate was stood for 30 min in a 5% CO2 incubator at 37° C., and further stood at room temperature for 30 min. A test compound prepared by diluting with assay buffer B (HBSS, 20 mM HEPES, 0.1% BSA) was added at 10 μL/well, and the fluorescence value was measured by FDSSpCELL (Hamamatsu Photonics K.K.) every one sec for 1 min, and thereafter every two sec for 1 min 40 sec. The activity (%) of the test compound was calculated assuming that variation in the fluorescence value when DMSO was added instead of the test compound was 0%, and variation in the fluorescence value when orexin A (human) (PEPTIDE INSTITUTE, INC.) was added at the final concentration of 10 nM was 100%.
row,SMILES,"0X2R agonist activity (3 μM, %) [%]"
1,"CS(=O)(=O)N[C@H]1CCc2cccc(=O)n2[C@H]1Cc1cccc(-c2ccccc2)c1 (racemic) [Example 1, rac-N-{(3S,4S)-4-[([1,1′-biphenyl]-3-yl)methyl]-6-oxo-1,3,4,6-tetrahydro-2H-quinolizin-3-yl}methanesulfonamide]",79
2,"CCc1ccc2n(c1=O)[C@@H](Cc1cccc(-c3ccccc3)c1F)[C@@H](NS(C)(=O)=O)CC2 (racemic) [Example 104, rac-N-{(3S,4S)-7-ethyl-4-[(2-fluoro[1,1′-biphenyl]-3-yl)methyl]-6-oxo-1,3,4,6-tetrahydro-2H-quinolizin-3-yl}methanesulfonamide]",89
3,"CCc1c(C)n(C)c2c(c1=O)[C@@H](Cc1cccc(-c3ccccc3)c1)[C@@H](NS(C)(=O)=O)CC2 (racemic) [Example 211, rac-N-{(5R,6S)-5-[([1,1′-biphenyl]-3-yl)methyl]-3-ethyl-1,2-dimethyl-4-oxo-1,4,5,6,7,8-hexahydroquinolin-6-yl}methanesulfonamide]",82
4,"[2H]C([2H])([2H])C([2H])([2H])n1ccc2c(c1=O)C(Cc1cccc(-c3cccc(F)c3F)c1)C(NS(C)(=O)=O)CC2 (racemic) [Example 147, rac-N-{(7S,8R)-8-[(2′,3′-difluoro[1,1′-biphenyl]-3-yl)methyl]-2-(~2~H_5_)ethyl-1-oxo-1,2,5,6,7,8-hexahydroisoquinolin-7-yl}methanesulfonamide]",100
5,"CC(C)n1cnc2c(c1=O)[C@@H](Cc1cccc(-c3cc(F)cc(F)c3)c1)[C@@H](NS(C)(=O)=O)CC2 (racemic) [Example 67, rac-N-[(5R,6S)-5-[(3′,5′-difluoro[1,1′-biphenyl]-3-yl)methyl]-4-oxo-3-(propan-2-yl)-3,4,5,6,7,8-hexahydroquinazolin-6-yl]methanesulfonamide]",105
6,"CC(C)n1cnc2c(c1=O)[C@@H](Cc1cccc(-c3cccc(F)c3F)c1)[C@@H](NS(=O)(=O)C1CC1)CC2 [Example 193, N-[(5R,6S)-5-[(2′,3′-difluoro[1,1′-biphenyl]-3-yl)methyl]-4-oxo-3-(propan-2-yl)-3,4,5,6,7,8-hexahydroquinazolin-6-yl]cyclopropanesulfonamide]",97
7,"CCc1ccc2n(c1=O)C(Cc1cccc(-c3ccccc3)c1)C(NS(C)(=O)=O)CC2 (racemic) [Example 27, rac-N-{(3S,4S)-4-[([1,1′-biphenyl]-3-yl)methyl]-7-ethyl-6-oxo-1,3,4,6-tetrahydro-2H-quinozilin-3-yl}methanesulfonamide]",99
8,"[2H]C([2H])([2H])C([2H])(n1cnc2c(c1=O)C(Cc1cccc(-c3ccccc3)c1F)C(NS(=O)(=O)C1CC1)CC2)C([2H])([2H])[2H] [Example 212, rel-N-{(5R,6S)-5-[(2-fluoro[1,1′-biphenyl]-3-yl)methyl]-4-oxo-3-[(~2~H_7_)propan-2-yl]-3,4,5,6,7,8-hexahydroquinazolin-6-yl}cyclopropanesulfonamide]",99
9,"Cc1ccc2n(c1=O)[C@@H](Cc1cccc(-c3cccc(F)c3)c1)[C@@H](NS(C)(=O)=O)CC2 (relative stereo) [Example 69, rel-N-{(3S,4S)-4-[(3′-fluoro[1,1′-biphenyl]-3-yl)methyl]-7-methyl-6-oxo-1,3,4,6-tetrahydro-2H-quinolizin-3-yl}methanesulfonamide]",94
10,"CCS(=O)(=O)N[C@H]1CCc2ncn(C(C)C)c(=O)c2[C@H]1Cc1cccc(-c2cccc(F)c2)c1 (racemic) [Example 81, rac-N-[(5R,6S)-5-[(3′-fluoro[1,1′-biphenyl]-3-yl)methyl]-4-oxo-3-(propan-2-yl)-3,4,5,6,7,8-hexahydroquinazolin-6-yl]ethanesulfonamide]",96
11,"CC(C)n1c(=O)c2c(n1C)CCC(NS(C)(=O)=O)C2Cc1cccc(-c2ccccc2)c1 [Example 208, rel-N-[(4aR,5S)-4-[([1,1′-biphenyl]-3-yl)methyl]-1-methyl-3-oxo-2-(propan-2-yl)-2,3,4,5,6,7-hexahydro-1H-indazol-5-yl]methanesulfonamide]",95
12,"CC(C)n1cnc2c(c1=O)[C@@H](Cc1ccccc1Oc1ccccc1)[C@@H](NS(C)(=O)=O)CC2 (racemic) [Example 133, rac-N-[(5R,6S)-4-oxo-5-[(2-phenoxyphenyl)methyl]-3-(propan-2-yl)-3,4,5,6,7,8-hexahydroquinazolin-6-yl]methanesulfonamide]",72
13,"Cc1ccc2n(c1=O)C(Cc1cccc(-c3cccc(F)c3)c1F)C(NC(=O)[C@@H]1CCCO1)CC2 (stereo in doubt) [Example 54, (2S)-N-{(3S*,4S*)-4-[(2,3′-difluoro[1,1′-biphenyl]-3-yl)methyl]-7-methyl-6-oxo-1,3,4,6-tetrahydro-2H-quinolizin-3-yl}oxolane-2-carboxamide]",97
14,"CCc1ccc2n(c1=O)C(Cc1cccc(-c3cccc(F)c3)c1F)C(NC(=O)C(=O)N(C)C)CC2 (racemic) [Example 39, rac-N~2~-{(3S,4S)-4-[2,3′-difluoro[1,1′-biphenyl]-3-yl)methyl]-7-ethyl-6-oxo-1,3,4,6-tetrahydro-2H-quinolizin-3-yl}-N~1~,N~1~-dimethylethanediamide]",89
15,"CCc1ccc2n(c1=O)[C@@H](Cc1cccc(-c3cccc(F)c3)c1F)[C@@H](NC(=O)C(=O)N(C)C)CC2 (relative stereo) [Example 43, rel-N~2~-{(3S,4S)-4-[(2,3′-difluoro[1,1′-biphenyl]-3-yl)methyl]-7-ethyl-6-oxo-1,3,4,6-tetrahydro-2H-quinolizin-3-yl}-N~1~,N~1~-dimethylethanediamide]",90
16,"CC(C)n1cnc2c(c1=O)[C@@H](Cc1csc(-c3ccccc3F)n1)[C@@H](NS(C)(=O)=O)CC2 (relative stereo) [Example 155, rel-N-[(5R,6S)-5-{[2-(2-fluorophenyl)-1,3-thiazol-4-yl]methyl}-4-oxo-3-(propan-2-yl)-3,4,5,6,7,8-hexahydroquinazolin-6-yl]methanesulfonamide]",104
17,"Cc1ccc(=O)n2c1CC[C@H](NS(C)(=O)=O)[C@@H]2Cc1cccc(-c2ccccc2)c1 (racemic) [Example 8, rac-N-{(3S,4S)-4-[([1,1′-biphenyl]-3-yl)methyl]-9-methyl-6-oxo-1,3,4,6-tetrahydro-2H-quinolizin-3-yl}methanesulfonamide]",97
18,"Cc1ccc2n(c1=O)C(Cc1cccc(-c3cccc(F)c3)c1)C(NC(=O)[C@@H]1CCCO1)CC2 (mixture of isomers) [Example 26, (2S)-N-{(3SR,4SR)-4-[(3′-fluoro[1,1′-biphenyl]-3-yl)methyl]-7-methyl-6-oxo-1,3,4,6-tetrahydro-2H-quinolizin-3-yl}oxolane-2-carboxamide]",101
19,"CS(=O)(=O)N[C@H]1CCc2ccc(C3CC3)c(=O)n2[C@H]1Cc1cccc(-c2ccccc2)c1 (racemic) [Example 22, rac-N-{(3S,4S)-4-[([1,1′-biphenyl]-3-yl)methyl]-7-cyclopropyl-6-oxo-1,3,4,6-tetrahydro-2H-quinolizin-3-yl}methanesulfonamide]",106
20,"Cn1cc2n(c1=O)[C@@H](Cc1cccc(-c3cc(F)cc(F)c3)c1F)[C@@H](NS(C)(=O)=O)CC2 (racemic) [Example 209, rac-N-{(5S,6S)-2-methyl-3-oxo-5-[(2,3′,5′-trifluoro[1,1′-biphenyl]-3-yl)methyl]-2,3,5,6,7,8-hexahydroimidazo[1,5-a]pyridin-6-yl}methanesulfonamide]",74
21,"CS(=O)(=O)NC1CCc2ccc(C(F)(F)F)c(=O)n2C1Cc1cccc(-c2ccccc2)c1 (racemic) [Example 12, rac-N-[(3S,4S)-4-[([1,1′-biphenyl]-3-yl]methyl-6-oxo-7-(trifluoromethyl)-1,3,4,6-tetrahydro-2H-quinolizin-3-yl]methanesulfonamide]",112
22,"CC(C)n1cnc2c(c1=O)C(Cc1cccc(-c3cccc(F)c3)c1)C(NS(=O)(=O)C1(F)CC1)CC2 (stereo not drawn) [Example 186, rel-1-fluoro-N-{5-[(3′-fluoro[1,1′-biphenyl]-3-yl)methyl]-4-oxo-3-(propan-2-yl)-3,4,5,6,7,8-hexahydroquinazolin-6-yl}cyclopropane-1-sulfonamide]",90
